Assay in all cases: NCI-60 cell line screen, 48 h
Test [1] relates to COLO 205 colon.
Test [2] relates to HOP-92 NSCLC.
Test [3] deals with LOX IMVI melanoma.
The subject of test [4] is OVCAR-3 ovarian.
Test [5] relates to OVCAR-4 ovarian.
In test [6] the test system is RPMI-8226 leukemia.
Test [7] relates to SF-268 CNS.
Test [8] deals with SN12C renal.
Test [9] concerns U251 CNS.
Test [10] has as its system RXF 393 renal.

The structures appear in SMILES notation.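 Assay format: 96-well plates, 48-hour exposure. GI50: concentration for 50% inhibition of growth. The concentration for full growth arrest is given as TGI.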

As for `CC1(C)CCc2c(c3c(c4c(=O)c(O)c(-c5ccc(O)cc5)oc24)OC(C)(C)CC3)O1`, the GI50 in test [1] was more than 100 µM; in [2] it was 14.6 µM; in test [3] it was 90.5 µM; in [4], 49.9 µM; in test [5], more than 100 µM; in test [6], more than 100 µM. The figures for the GI50 in test [7], in test [8] and in test [9] were 30.5 µM, 82.9 µM and 24.7 µM, respectively. The TGI was more than 100 µM in test [1]; 38.2 µM in test [2]; more than 100 µM in [3]; more than 100 µM in [4]; more than 100 µM in test [5]; more than 100 µM in [6]. For the same compound, the TGI in [7] was more than 100 µM; in test [8], more than 100 µM; in test [9], 65.5 µM.
Turning to `COC(=O)CC1CCN(C#N)CC1CC[N+](=O)[O-]` (stereo not drawn), the TGI in [1], in [4], in test [5], in test [6], in test [10] and in [7] was more than 100 µM each time. In addition, the TGI in [8] and in test [9] was more than 100 µM throughout.
Take `Cc1ccc(N=Nc2ccc(N(CCC#N)CCC#N)cc2C)c(Br)c1`: the TGI is more than 100 µM in test [1]; more than 100 µM in test [4]; more than 100 µM in [5]; 35.8 µM in test [6]; 46.1 µM in test [10]; more than 100 µM in test [7]. In addition, the TGI in test [8] and in [9] was more than 100 µM each time.
For `O=CC[C@H]1C(=O)C[C@@H]2CCC[C@@H]21`, the TGI in test [1], in test [2], in test [4], in test [5], in test [6] and in test [10] was more than 100 µM each time. Further, the TGI in test [7], in test [8] and in test [9] was more than 100 µM in each case.
Take `CO[C@H](C(=O)[C@@H](O)[C@@H](C)O)[C@@H]1Cc2cc3cc(O[C@H]4C[C@@H](O[C@H]5C[C@@H](O)[C@H](O)C(C)O5)[C@H](O)C(C)O4)c(C)c(O)c3c(O)c2C(=O)[C@H]1O[C@H]1C[C@@H](O[C@H]2C[C@@H](O[C@H]3C[C@](C)(O)C(=O)C(C)O3)[C@@H](O)C(C)O2)[C@H](O)C(C)O1` (stereo partly drawn): the GI50 in test [1] is 0.053 µM; in test [2] it was 0.0852 µM; in test [4] it was 0.0907 µM; in test [5] it was 0.124 µM; in test [6], 0.1 µM; in test [10] it was 0.0515 µM. Besides, the results for the GI50 in [7], in [8] and in test [9] were 0.065 µM, 0.093 µM and 0.031 µM, respectively. The TGI in [1] was 0.459 µM; in [2] it was 0.801 µM; in [4] it was 3.54 µM; in test [5] it was 7.04 µM; in test [6] it was 1.61 µM; in [10], 0.119 µM. In addition, the TGI in test [7], in [8] and in test [9] was more than 33.2 µM throughout.
For `COC1(OC)CCC2C1C1CCC(OC)(OC)C21` (stereo not drawn), the TGI in test [1], in [2], in [4], in test [5], in test [6] and in [10] was more than 50 µM each time. In addition, the TGI in test [7], in [8] and in test [9] was more than 50 µM throughout.
Regarding `CN1C(=O)C(C)(C)C2(SC(C)(C)C2(C)C)N(C)C1=S` (stereo not drawn), the TGI in test [1], in test [2], in test [4], in test [5], in [6] and in test [10] was more than 100 µM in each case. Besides, the TGI in test [7], in test [8] and in [9] was more than 100 µM throughout.
Turning to `Cc1ccc2c(=O)cc(-c3ccc(F)cc3)[nH]c2n1`, the TGI in [1] was 47.9 µM; in test [2] it was 86.5 µM; in test [3] it was more than 100 µM; in test [4], more than 100 µM; in test [5], more than 100 µM; in test [6], 95.1 µM. Besides, the TGI in [7], in [8] and in test [9] was more than 100 µM in each case. For the same compound, the GI50 in test [4] is 32.2 µM; in test [9], 37.3 µM.
`COc1cc2c(cc1OC)-c1c3cc(O)ccc3nn[n+]1CC2`: the TGI in test [1], in test [3], in [4], in test [5], in test [6] and in [10] was more than 100 µM in each case. Moreover, the TGI in test [7], in test [8] and in test [9] was more than 100 µM in each case.
On to `C/C(CC(=O)CCC(=O)Nc1cccc(C(F)(F)F)c1)=N\NC(=O)NN`, for which the TGI in [1], in [2], in [4], in test [5], in test [6] and in test [7] was more than 100 µM in each case. The TGI in test [8] and in test [9] was more than 100 µM in each case.
Turning to `Cc1ccc(NC2=C(Cl)C(=O)N(Cc3ccccc3)C2=O)cc1O`, the GI50 in test [1] was 49 µM; in test [3], 18 µM; in test [4], 20.6 µM; in [5] it was 79.3 µM; in [6] it was 9.26 µM; in test [10], 52 µM. In addition, the GI50 is 31.7 µM in test [7], 25.6 µM in test [8] and 18.7 µM in test [9]. Further, the TGI in [1] was more than 100 µM; in test [3], 63.4 µM; in test [4] it was 70 µM; in test [5], more than 100 µM; in [6] it was 47.5 µM; in test [10], more than 100 µM. Besides, the TGI in test [7] was more than 100 µM; in test [8] it was 93.8 µM; in test [9], 84.6 µM.
For `CCN(CCO)CC1CCCC2CCCCC21` (stereo not drawn), the TGI in test [1], in [2], in test [4], in test [5], in test [6] and in test [10] was more than 100 µM throughout. The TGI in test [7], in test [8] and in [9] was more than 100 µM throughout.
With `N#CCCN(CCC#N)c1ccc(/C=C2\N=C(c3cc([N+](=O)[O-])ccc3Cl)OC2=O)cc1`, the TGI in [3] is 46.5 µM; in test [4] it was 70.7 µM; in test [5] it was 78.6 µM; in test [6] it was more than 100 µM; in test [7] it was more than 100 µM; in test [8], 37.8 µM. In test [9], this compound returned a TGI of 32.1 µM.
Regarding `NC(Cc1c[nH]c2c(O)cccc12)C(=O)O` (stereo not drawn), the GI50 in test [1], in [2], in test [3], in test [4], in test [5] and in [6] was more than 100 µM in each case. For the same compound, the GI50 in test [7], in test [8] and in test [9] was more than 100 µM in each case. Further, the TGI in [1], in [2], in [3], in [4], in test [5] and in test [6] was more than 100 µM throughout. The TGI in test [7], in test [8] and in test [9] was more than 100 µM in each case.
With `O=C(COc1ccc(Br)cc1Br)N1N=C(c2ccc([N+](=O)[O-])o2)CC1(O)c1ccccc1` (stereo not drawn), the TGI in test [1] was 7.05 µM; in [3], 18.4 µM; in [4], 20.2 µM; in test [5] it was more than 100 µM; in [6] it was 8.96 µM; in test [10] it was 15.7 µM. Also, the results for the TGI in test [7], in test [8] and in [9] were 36 µM, 25.7 µM and 22.9 µM, respectively.
As for `N#CC(c1ccc(Cl)cc1)c1cccc(C(C#N)c2ccc(Cl)cc2)n1` (stereo not drawn), the TGI in test [1] was 43 µM; in test [2], 60.6 µM; in [4], more than 100 µM; in [5], more than 100 µM; in [6], more than 100 µM; in test [7], more than 100 µM. Besides, the TGI in [8] and in [9] was more than 100 µM throughout.
`CCCCOC(=O)C1OC(O[C@H]2CCC3(C)C(CCC4(C)C3CC=C3C5CC(C)(C)CCC5(C(=O)O)CC[C@]34C)C2(C)C)C(OC2OC(CO)C(O)C(O)C2O)C(OC2OC(CO)C(O)C(O)C2O)C1O` (stereo partly drawn): the GI50 in test [1] is 20.1 µM; in [2], 33.2 µM; in test [3], 18 µM; in test [4] it was more than 100 µM; in test [10] it was 58.5 µM; in test [7], 27.7 µM. Moreover, the GI50 in [8] is 21.8 µM; in test [9], 17.9 µM. Also, the TGI in test [1] was 52.3 µM; in test [2], more than 100 µM; in test [3], 31.8 µM; in [4], more than 100 µM; in test [10], more than 100 µM; in test [7], 84.4 µM. Also, the figures for the TGI in [8] and in [9] were 40 µM and 31.8 µM, respectively.
Consider `Clc1cc2nsnc2c(Cl)n1`, for which the TGI was 31.7 µM in test [1]; 33.1 µM in test [2]; more than 100 µM in [3]; 33.4 µM in test [4]; 31.3 µM in test [5]; 62.5 µM in test [6]. In addition, the TGI is 79.4 µM in [7] and 40.1 µM in [9].
Turning to `N#CC1C(C#N)C2(c3ccccc3)C(c3ccccc3)=NN(c3ccccc3)CC12` (stereo not drawn), the TGI in [3], in [4], in test [5], in test [6], in test [10] and in test [8] was more than 100 µM each time. In test [9], this compound had a TGI of more than 100 µM.
`NC(=O)c1sc(-n2cnc3ccccc32)cc1OCc1ccccc1Br`: the GI50 was 1.58 µM in [1]; 1.98 µM in test [3]; 1.55 µM in test [4]; more than 25 µM in test [5]; 12.6 µM in test [6]; 1.73 µM in test [10]. Besides, the GI50 is 4.98 µM in test [7], 14.2 µM in test [8] and 4.44 µM in [9]. Besides, the TGI is 23.2 µM in test [1]; more than 25 µM in [3]; 17.6 µM in test [4]; more than 25 µM in [5]; more than 25 µM in test [6]; more than 25 µM in test [10]. In addition, the TGI in [7], in test [8] and in test [9] was more than 25 µM in each case.
In the case of `Cc1nc2ccccc2c(=O)n1-c1ccccc1I`, the TGI in [1], in test [4], in [5], in [6], in [7] and in test [8] was more than 100 µM throughout. The same compound registered a TGI in [9] of more than 100 µM.
In the case of `O=C1/C(=C/c2ccccc2)CN(C(=O)C(Cl)(Cl)Cl)C/C1=C\c1ccccc1`, the TGI in test [1] turned out to be 4.69 µM; in test [3], 2.18 µM; in test [4] it was 7.88 µM; in test [5], 3.42 µM; in test [6] it was 0.314 µM; in test [10], 4.02 µM. For the same compound, the TGI was found to be 13.4 µM in test [7], 3.12 µM in test [8] and 3 µM in test [9].
With `O=S1(=O)c2ccccc2NC(c2ccc3ccccc3c2)CC1c1ccccc1F` (stereo not drawn), the TGI in test [1], in [3], in test [4], in test [5], in test [6] and in test [10] was more than 100 µM throughout. Also, the TGI in test [7] and in test [8] was more than 100 µM in each case.
With `CN/N=C(/Cc1occc(=O)c1O)C(=O)Nc1ccccc1C`, the TGI in test [1], in test [2], in [3], in test [4], in test [5] and in test [6] was more than 100 µM each time. The TGI in test [7], in test [8] and in test [9] was more than 100 µM in each case.

Values taken from PubChem BioAssay (NCI).
